ChEMBL document CHEMBL1123856, “Synthesis and biological activities of arginine-vasopressin analogues with 4-hydroxyproline in position 7” (1987)
Positions of bridges follow the written chain, without caps; N, C: chain ends. Non-standard residues stand in square brackets, D forms with d. Residues, ends and D or L forms follow the SMILES beside them. NMeA = CN[C@@H](C)C(=O)O; Mpa = O=C(O)CCS

What was measured:
[1] = organism: Rattus norvegicus; assay: Uterine activity was meseared in isolated rat uterus in solutions in the absence No Mg2+ 0.5 mM in vitro; type: functional
[2] = tested on: Rattus norvegicus; assay: Antidiuretic activity on water loaded, ethanol-anesthetized rat.; type: functional, Urine
[3] = tested on: Rattus norvegicus; assay: Pressor activity on urethane-anesthetized, phenoxybenzamine-treated rat.; type: functional
[4] = organism: Rattus norvegicus; assay: Uterine activity was meseared in isolated rat uterus in solutions in the presence Mg2+ 0.5 mM in vitro; type: functional

For `NC(=O)CC[C@@H]1NC(=O)[C@H](Cc2ccccc2)NC(=O)[C@H](Cc2ccc(O)cc2)NC(=O)CCSSC[C@@H](C(=O)N2CC=C[C@H]2C(=O)N[C@@H](CCCN=C(N)N)C(=O)NCC(N)=O)NC(=O)[C@H](CC(N)=O)NC1=O`, the Uterine activity [1] was 69 units/mg, the Antidiuretic activity [2] was 4130 units/mg and the Pressor activity [3] was 240 units/mg.

Compound `CC(C)C[C@H](NC(=O)[C@@H]1CSSC[C@H](N)C(=O)N[C@@H](Cc2ccc(O)cc2)C(=O)N[C@@H](Cc2ccccc2)C(=O)N[C@@H](CCC(N)=O)C(=O)N[C@@H](CC(N)=O)C(=O)N1)C(=O)N[C@@H](CCCN=C(N)N)C(=O)NCC(N)=O` (H-CYFQNCLRG-NH2; disulfide 1-6) has an Antidiuretic activity [2] of 19 units/mg.

`C[C@@H](C(=O)N[C@@H](CCCN=C(N)N)C(=O)NCC(N)=O)N(C)C(=O)[C@@H]1CSSCCC(=O)N[C@@H](Cc2ccc(O)cc2)C(=O)N[C@@H](Cc2ccccc2)C(=O)N[C@@H](CCC(N)=O)C(=O)N[C@@H](CC(N)=O)C(=O)N1` ([Mpa]YFQNC[NMeA]RG-NH2; disulfide 1-6) gave a Uterine activity [1] of 2 units/mg, an Antidiuretic activity [2] of 113 units/mg and a Pressor activity [3] of 1 units/mg. It also gave a Uterine activity [4] of 8 IU/mg.

In the case of `NC(=O)CC[C@@H]1NC(=O)[C@H](Cc2ccccc2)NC(=O)[C@H](Cc2ccc(O)cc2)NC(=O)[C@@H](N)CSSC[C@@H](C(=O)N2C[C@H](O)C[C@H]2C(=O)N[C@@H](CCCN=C(N)N)C(=O)NCC(N)=O)NC(=O)[C@H](CC(N)=O)NC1=O` (stereo in doubt; form 1), the Uterine activity [1] is reported as 73 units/mg, the Antidiuretic activity [2] is reported as 712 units/mg and the Pressor activity [3] is reported as 4 units/mg. For the same compound, the Uterine activity [4] was 268 IU/mg.

In the case of `NC(=O)CC[C@@H]1NC(=O)[C@H](Cc2ccccc2)NC(=O)[C@H](Cc2ccc(O)cc2)NC(=O)[C@@H](N)CSSC[C@@H](C(=O)N2C[C@H](O)C[C@H]2C(=O)N[C@@H](CCCN=C(N)N)C(=O)NCC(N)=O)NC(=O)[C@H](CC(N)=O)NC1=O` (stereo in doubt; form 2), the Uterine activity [1] is reported as 225 units/mg, the Antidiuretic activity [2] is reported as 780 units/mg and the Pressor activity [3] is reported as 1 units/mg. For the same compound, the Uterine activity [4] was 285 IU/mg.

With `NC(=O)CC[C@@H]1NC(=O)[C@H](Cc2ccccc2)NC(=O)[C@H](Cc2ccc(O)cc2)NC(=O)[C@@H](N)CSSC[C@@H](C(=O)N2C[C@H](O)C[C@H]2C(=O)N[C@@H](CCCN=C(N)N)C(=O)NCC(N)=O)NC(=O)[C@H](CC(N)=O)NC1=O` (stereo in doubt; form 3) the Uterine activity [1] was 63 units/mg, the Antidiuretic activity [2] was 614 units/mg and the Pressor activity [3] was 8 units/mg. The Uterine activity [4] was 176 IU/mg.

`N=C(N)NCCC[C@@H](NC(=O)[C@@H]1CCCN1C(=O)[C@@H]1CSSCCC(=O)N[C@@H](Cc2ccc(O)cc2)C(=O)N[C@@H](Cc2ccccc2)C(=O)N[C@@H](CCC(N)=O)C(=O)N[C@@H](CC(N)=O)C(=O)N1)C(=O)NCC(N)=O` [DESMOPRESSIN] gave a Uterine activity [1] of 28 units/mg, an Antidiuretic activity [2] of 1740 units/mg and a Pressor activity [3] of 346 units/mg.

In the case of `N=C(N)NCCC[C@H](NC(=O)[C@@H]1CCCN1C(=O)[C@@H]1CSSC[C@H](N)C(=O)N[C@@H](Cc2ccc(O)cc2)C(=O)N[C@@H](Cc2ccccc2)C(=O)N[C@@H](CCC(N)=O)C(=O)N[C@@H](CC(N)=O)C(=O)N1)C(=O)NCC(N)=O` [VASOPRESSIN], the Uterine activity [1] is reported as 12 units/mg and the Antidiuretic activity [2] is reported as 323 units/mg.
